According to patent US20220325122A1, “Ink Set And Recording Method” (Seiko Epson Corporation, priority 2021, published 2022):

Conditions: water at 20° C.; stated in words

With COCCOC [ethylene glycol dimethyl ether] as the compound, how does the miscibility with water read?
The miscibility with water was “completely miscible with water”.
